From patent US20150272939A1, “Identification of Small Molecule Inhibitors of Jumonji AT-Rich Interactive Domain 1A (JARID1A) and 1B (JARID1B) Histone Demethylase” (Yale University, priority 2012, published 2015)
Read-outs that look alike come from different tables or passages of the source.

What was measured:
[1] = AlphaScreen counterscreen against bio-H3K4me2 peptide in the absence of enzyme (artifact signal); conditions: for Artifact signal: effect of the compound when it is incubated with bio-H3K4me2 peptide: counterscreen, no enzyme; for Artifact Signal (percent): effect of the compound when incubated with bio-H3K4me2 peptide (counterscreen, no enzyme);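 as to all read-outs here: counterscreen run without enzyme against bio-H3K4me2 peptide to remove false positive hits from the JARID1 demethylase AlphaScreen screen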
[2] = target: T1, JARID1B (Homo sapiens, UniProt Q9UGL1); assay: FLAG-JARID1B histone demethylase assay with AlphaScreen detection (HTS and dose response); assay type: biochemical; conditions: for inhibition at 20 µM: read-out: Inhibitory effect (percent); for Validation result of HTS active: effect of the compound in the JARID1B AlphaScreen demethylase assay / Assay Signal (percent): validation of HTS actives; for Validation result of HTS active: effect of the compound in the JARID1B AlphaScreen demethylase assay: total signal before subtraction of artifact signal; for Assay − Artifact Signal (percent): assay signal minus artifact signal; for Assay Signal (percent): effect of compound in JARID1B AlphaScreen assay;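 as to Assay Signal (percent): compound tested at 20 µM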;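 as to Assay − Artifact Signal (percent): compound tested at 20 µM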;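 as to all read-outs here: FLAG-tagged JARID1B at 4 nM acting on a biotinylated H3K4me3 peptide, demethylation read by AlphaScreen luminescence, with hits checked against bio-H3K4me2 without enzyme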
T1 construct: The FLAG tagged full length JARID1B enzyme was expressed in Sf21 insect cells using FLAG-JARID1B baculoviruses; FLAG (N); made in house; host or cells: Sf21 insect cells (baculovirus)

[3] = high-throughput screen, compound 20 μM, standard demethylase conditions (10 μM α-KG, 50 μM Fe (II))

T1 sequence (Q9UGL1 whole entry): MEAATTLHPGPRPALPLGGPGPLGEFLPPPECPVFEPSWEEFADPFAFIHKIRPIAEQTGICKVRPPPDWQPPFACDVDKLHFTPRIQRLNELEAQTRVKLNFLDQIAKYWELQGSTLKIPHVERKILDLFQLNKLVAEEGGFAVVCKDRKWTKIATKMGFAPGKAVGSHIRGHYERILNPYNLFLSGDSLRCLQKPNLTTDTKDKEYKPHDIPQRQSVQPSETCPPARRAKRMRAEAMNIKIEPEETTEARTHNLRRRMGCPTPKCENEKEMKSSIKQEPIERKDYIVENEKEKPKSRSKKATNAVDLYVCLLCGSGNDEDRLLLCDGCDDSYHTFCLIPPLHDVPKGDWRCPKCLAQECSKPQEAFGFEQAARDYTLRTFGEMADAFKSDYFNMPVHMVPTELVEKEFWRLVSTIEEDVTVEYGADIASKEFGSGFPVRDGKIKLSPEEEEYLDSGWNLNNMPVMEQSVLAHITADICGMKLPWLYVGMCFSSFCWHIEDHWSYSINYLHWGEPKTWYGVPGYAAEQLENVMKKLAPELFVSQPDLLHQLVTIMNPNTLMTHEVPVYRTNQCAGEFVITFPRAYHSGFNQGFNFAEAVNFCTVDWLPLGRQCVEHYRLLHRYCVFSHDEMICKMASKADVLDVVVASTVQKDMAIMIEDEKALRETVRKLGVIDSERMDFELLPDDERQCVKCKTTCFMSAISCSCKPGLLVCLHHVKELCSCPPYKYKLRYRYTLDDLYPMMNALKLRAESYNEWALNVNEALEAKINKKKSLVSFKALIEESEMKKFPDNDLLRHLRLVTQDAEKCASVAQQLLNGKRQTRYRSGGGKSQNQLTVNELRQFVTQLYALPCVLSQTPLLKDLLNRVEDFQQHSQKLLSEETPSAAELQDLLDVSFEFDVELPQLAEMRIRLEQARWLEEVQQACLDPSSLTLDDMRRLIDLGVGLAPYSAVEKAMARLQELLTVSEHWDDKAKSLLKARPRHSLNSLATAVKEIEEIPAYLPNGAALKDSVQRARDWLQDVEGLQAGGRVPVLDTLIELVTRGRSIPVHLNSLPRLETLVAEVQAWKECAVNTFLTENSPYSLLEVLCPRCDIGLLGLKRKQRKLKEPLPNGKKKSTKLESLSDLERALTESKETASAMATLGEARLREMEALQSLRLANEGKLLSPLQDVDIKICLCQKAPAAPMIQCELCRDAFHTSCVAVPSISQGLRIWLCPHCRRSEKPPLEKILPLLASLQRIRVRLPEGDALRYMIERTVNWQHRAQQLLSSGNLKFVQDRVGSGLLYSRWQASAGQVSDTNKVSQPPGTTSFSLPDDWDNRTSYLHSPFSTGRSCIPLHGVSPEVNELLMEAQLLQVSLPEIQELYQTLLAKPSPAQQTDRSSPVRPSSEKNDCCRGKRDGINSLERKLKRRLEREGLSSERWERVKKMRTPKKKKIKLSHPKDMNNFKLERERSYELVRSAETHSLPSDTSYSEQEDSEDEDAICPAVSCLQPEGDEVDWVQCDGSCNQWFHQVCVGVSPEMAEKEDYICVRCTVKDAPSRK

Row | Structure (SMILES) | Artifact signal: effect of the compound when it is incubated with bio-H3K4me2 peptide [1] | inhibition at 20 µM ([2]; high-throughput screen, compound 20 μM, IDs marked *: additional hits under reaction condition with 1 mM α-KG) [%] | Validation result of HTS active: effect of the compound in the JARID1B AlphaScreen demethylase assay [2] | Artifact Signal (percent) [1] [%] | Assay − Artifact Signal (percent) [2] [%] | Inhibitory effect (percent) [2, 3] [%] | Assay Signal (percent) [2] [%] | inhibition at 20 µM [2, 3] [%]
1 | O=c1c(O)cccc2cc(O)c(O)c(O)c12 [YU155440, PURPUROGALLIN, reference compound] | 6.39 | 42.5 | 13.64 |  |  |  |  | 
2 | C[n+]1cc2c3c(ccc2c2ccc4cc5c(cc4c21)OCO5)OCO3.O=S(=O)([O-])O [YU155443, SANGUINARINE SULFATE, reference compound] |  |  |  | −11.85 | 17.36 | 62.80 | 5.51 | 
3 | COc1cccc(O)c1O [YU155465, 3-METHOXYCATECHOL, reference compound] |  |  |  | 7.97 | 48.87 |  | 56.84 | 56.5
4 | COc1cccc2c1C(=O)c1c(O)c3c(c(O)c1C2=O)C[C@@](O)(C(C)=O)C[C@@H]3O[C@H]1C[C@H](N)[C@H](O)[C@H](C)O1 [YU155488, DAUNORUBICIN, reference compound] |  |  |  | 3.31 | 45.32 |  | 48.63 | 
5 | COc1cc2cc3c4cc(OC)c(OC)cc4cc[n+]3c(C)c2cc1OC.[Cl-] [YU155528, CORALYNE CHLORIDE, reference compound] | −5.30 |  | −1.03 |  |  |  |  | 73.2
6 | O=C(O)c1cc(O)c(O)c(O)c1 [YU155562, GALLIC ACID, reference compound] |  |  |  | 8.44 | 51.44 |  | 59.88 | 63.9
7 | Oc1cc(O)c2c(c1)O[C@H](c1ccc(O)c(O)c1)[C@H](O)C2 [YU155618, EPICATECHIN, reference compound] |  |  |  | 6.96 | 57.78 |  | 64.74 | 66
8 | COc1c(O)cc2c(c1O)[C@@H]1O[C@H](CO)[C@@H](O)[C@H](O)[C@H]1OC2=O [YU155621, BERGENIN, reference compound] |  |  |  | 20.42 | 73.02 |  | 93.44 | 96.8
9 | Fc1ccccc1-c1nc2ncccc2o1 [YU172071] | −1.99 |  | 3.80 |  |  |  |  | 37.3
10 | Cc1c2c(=O)n(-c3nc4ccccc4s3)[nH]c2cc(=O)n1CCN1CCOCC1 [YU172087] |  |  |  | −6.77 | 21.21 |  | 14.44 | 56.4
11 | Cc1c2c(=O)n(-c3nc4ccccc4s3)[nH]c2cc(=O)n1Cc1ccc(C(=O)O)cc1 [YU172089] |  |  |  | 11.16 | 11.36 |  | 22.52 | 92.3
12 | Oc1c(C(Nc2ccccc2Cl)c2cccnc2)ccc2cccnc12 (centres unmarked) [YU172164] |  |  |  | 36.24 | 11.14 |  | 47.38 | 56
13 | Oc1c(C(Nc2ccc(Cl)cc2)c2cccnc2)ccc2cccnc12 (centres unmarked) [YU172165] |  |  |  | 28.76 | 14.24 |  | 43.01 | 42.3
14 | CCOC(=O)c1ccc(NC(c2cccnc2)c2ccc3cccnc3c2O)cc1 (centres unmarked) [YU172168] | 37.50 |  | 44.99 |  |  |  |  | 37.1
15 | Cc1cccc(NC(c2cccnc2)c2ccc3cccnc3c2O)c1 (centres unmarked) [YU172169] |  |  |  | 61.44 | 11.78 |  | 73.22 | 72.7
16 | Cc1cccc(NC(c2ccncc2)c2ccc3cccnc3c2O)c1 (centres unmarked) [YU172170] |  |  |  | 48.19 | 16.90 |  | 65.09 | 70
17 | COC(=O)c1cccc(NC(c2cccnc2)c2ccc3cccnc3c2O)c1 (centres unmarked) [YU172172] | 56.78 |  | 63.48 |  |  |  |  | 60.1
18 | Cc1ccc(NC(c2cccnc2)c2ccc3cccnc3c2O)cc1C (centres unmarked) [YU172173] | 37.31 |  | 44.79 |  |  |  |  | 40
19 | COc1ccc(C)cc1NC(c1cccnc1)c1ccc2cccnc2c1O (centres unmarked) [YU172175] |  |  |  | 36.93 | 11.16 |  | 48.09 | 48.5
20 | Cc1cccc(NC(c2ccccn2)c2ccc3cccnc3c2O)n1 (centres unmarked) [YU172178] |  |  |  | 37.93 | 8.53 |  | 46.45 | 72.3

Row | Structure (SMILES) | Artifact signal: effect of the compound when it is incubated with bio-H3K4me2 peptide [1] | inhibition at 20 µM ([2]; high-throughput screen, compound 20 μM, IDs marked *: additional hits under reaction condition with 1 mM α-KG) [%] | Validation result of HTS active: effect of the compound in the JARID1B AlphaScreen demethylase assay [2] | Artifact Signal (percent) [1] [%] | Assay − Artifact Signal (percent) [2] [%] | Inhibitory effect (percent) [2, 3] [%] | Assay Signal (percent) [2] [%] | inhibition at 20 µM [2, 3] [%]
21 | Cc1cccc(NC(c2cccnc2)c2ccc3cccnc3c2O)n1 (centres unmarked) [YU172179] |  |  |  | 53.31 | 10.43 |  | 63.74 | 58.1
22 | Cc1[nH]c2nc(C(F)(F)F)nn2c(=O)c1C [YU172199] |  |  |  | −4.00 | 42.72 |  | 38.73 | 62.4
23 | c1ccc(-c2nc3ccccn3c2Nc2ccc3c(c2)OCCO3)nc1 [YU172999] |  |  |  | 10.03 | 88.40 |  | 98.42 | 96.7
24 | Clc1ccc2nc(-c3ccccn3)c(Nc3ccc4c(c3)OCO4)n2c1 [YU173003] |  |  |  | 3.56 | 37.18 |  | 42.73 | 83.1
25 | Clc1ccc2nc(-c3ccccn3)c(Nc3ccc4c(c3)OCCO4)n2c1 [YU173004] |  |  |  | 0.87 | 48.80 |  | 49.67 | 94
26 | Cc1noc2c1C(c1ccc(O)c(O)c1)C1=C(CCCC1=O)N2 (centres unmarked) [YU183529] |  |  |  | 4.16 | 36.06 |  | 40.22 | 
27 | Cc1noc2c1C(c1ccc(O)c(O)c1)C1=C(CC(C)(C)CC1=O)N2 (centres unmarked) [YU185530] |  |  |  | 1.72 | 36.51 |  | 38.23 | 46.5
28 | CCC(=O)Nc1ccc(N2CCC(C(N)=O)(N3CCCCC3)CC2)c(C(=O)O)c1 [YU208193] |  |  |  | 16.13 | 11.50 |  | 27.63 | 46.1
29 | CCCCC(=O)Nc1ccc(N2CCC(C(N)=O)(N3CCCCC3)CC2)c(C(=O)O)c1 [YU208194] | 11.63 |  | 17.11 |  |  |  |  | 63.8
30 | CC(=O)Nc1ccc(N2CCC(C(N)=O)(N3CCCCC3)CC2)c(C(=O)O)c1 [YU208195] | 8.81 |  | 14.20 |  |  |  |  | 52.9
31 | CCC(=O)Nc1ccc(N2CCCC2)c(C(=O)O)c1 [YU208199] |  |  |  | 32.96 | 17.19 |  | 50.16 | 63.4
32 | O=C(Nc1ccc(N2CCCC2)c(C(=O)O)c1)c1ccc(Br)cc1 [YU208200] | 20.10 |  | 24.86 |  |  |  |  | 53
33 | O=C(Nc1ccc(N2Cc3ccccc3OC(c3ccccc3)C2)c(C(=O)O)c1)c1ccccc1F (centres unmarked) [YU208213] | 32.32 |  | 37.72 |  |  |  |  | 
34 | CCC(=O)Nc1ccc(N(C)CCCc2c(C)nn(C)c2C)c(C(=O)O)c1 [YU208228] | 20.21 |  | 24.80 |  |  |  |  | 43.4
35 | CC(=O)Nc1ccc(N(C)CCCc2c(C)nn(C)c2C)c(C(=O)O)c1 [YU208230] | 17.72 |  | 24.45 |  |  |  |  | 38.5
36 | CCCCC(=O)Nc1ccc(N(C)CCc2c(C)nn(C)c2C)c(C(=O)O)c1 [YU208232] |  |  |  | 18.67 | 19.26 |  | 37.92 | 50.5
37 | O=C(Nc1ccc(N2CCC(c3ccccc3)C2)c(C(=O)O)c1)c1cccc(Cl)c1 (centres unmarked) [YU208239] |  |  |  | 26.96 | 9.53 |  | 36.49 | 50.2
38 | Cc1ccc(C(=O)Nc2cnc(N3CCN(c4ccccc4Cl)CC3)c(C(=O)O)c2)cc1 [YU208246] |  |  |  | −0.08 | 10.41 |  | 10.32 | 44.5
39 | O=C(Nc1cnc(N2CCN(c3ccccc3Cl)CC2)c(C(=O)O)c1)c1ccc(F)cc1 [YU208247] | 0.47 |  | 7.92 |  |  |  |  | 51.5
